pEC50, pIC50: −log10 of the molar value.
Assays:
[1] = target: T1, IDO1 (Homo sapiens, UniProt P14902); assay: Hela cell-based IDO1 assay; conditions: Hela cells
In short: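 Kynurenine was measured at 480 nm in trichloroacetic acid-deproteinised supernatant after adding 2% 4-(dimethylamino)benzaldehyde. This supernatant came from HeLa cells seeded at 8000 per well in 96-well plates in phenol red-free DMEM with 10% FBS and, from 4 hours after seeding, exposed for 48 hours at 37 °C, 5% CO2 to DMSO-diluted compound dilutions, IFN-γ (final 100 ng/mL) and 0.4 mM L-Trp. The resulting data were fitted with a four-parameter logistic model in XLfit. Potency was taken from those fits.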

[2] = target: T1, IDO1; assay: IDO1 enzymatic assay; type: biochemical; parameters: His tag (N); made in house; host or cells: E. coli; conditions: read-out: Enzyme IC50 IDO1
In short: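 Compound was incubated with 50 nM His-tagged IDO1 from E. coli, 1.3 mM D-tryptophan, 5 mM L-ascorbic acid, methylene blue and 0.4 mg/mL catalase in 50 mM potassium phosphate pH 7.5, 0.1% BSA, at 24 °C for 1.5 hours. Activity was the slope of N'-formylkynurenine formation read continuously at 321 nm for 1 hour. IC50 was obtained from remaining activity versus compound concentration.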

[3] = target: T2, cellular TDO2 in HEK293-TDO2 cells (Homo sapiens, UniProt P48775); assay: 293-TDO2 cell-based assay (Kyn colorimetric); conditions: 48 hours of incubation
T2 construct: expressed in transfected cells; host or cells: HEK293 (ATCC), stably transfected
Procedure: The inhibitory activity of TDO2 inhibitors is determined by using a colorimetric reaction to measure Kyn generated from L-Trp (L-Tryptophon) oxidation by cellular TDO2 in HEK293-TDO2 cells stably transfected with a plasmid expression of Tryptophan 2,3-dioxygenase (for short, 293-TDO2).
HEK293 cells were obtained from the American Type Culture Collection and 293-TDO2 were recovered in 10% FBS-containing phenol red-free DMEM medium. Cells were plated onto a 96-well plate (100 μl/well) at 10000 cells per well and kept at 37° C. in a humidified incubator supplied with 5% CO2. 4 hours later, Compounds at different concentrations diluted in dimethylsulfoxide (DMSO) were added to plate. Cells were kept at 37° C. in a humidified incubator supplied with 5% CO2. After 48 hours of incubation, 100 μl supernatant from each well was removed to a new plate. The protein in the medium was precipitated with the addition of 8 μl 6N trichloroacetic acid. The plate was incubated at 60° C. for 30 minutes and then centrifugation at 2500 rpm for 10 minutes to remove sediments. 80 μl supernatants were carefully removed to a new clean plate and added with an equal volume of 2% 4-(Dimethylamino) benzaldehyde (D2004, sigma) dissolved in glacial acetic acid. The absorbance at 480 nm wavelength derived from Kyn was measured using a PHERAstar FS plate reader (BMG LABTECH). The IC50 for each compound was derived from fitting the dose-response data to the four-parameter logistic model by using XLfit software (IDBS).

T2 sequence (P48775 whole entry): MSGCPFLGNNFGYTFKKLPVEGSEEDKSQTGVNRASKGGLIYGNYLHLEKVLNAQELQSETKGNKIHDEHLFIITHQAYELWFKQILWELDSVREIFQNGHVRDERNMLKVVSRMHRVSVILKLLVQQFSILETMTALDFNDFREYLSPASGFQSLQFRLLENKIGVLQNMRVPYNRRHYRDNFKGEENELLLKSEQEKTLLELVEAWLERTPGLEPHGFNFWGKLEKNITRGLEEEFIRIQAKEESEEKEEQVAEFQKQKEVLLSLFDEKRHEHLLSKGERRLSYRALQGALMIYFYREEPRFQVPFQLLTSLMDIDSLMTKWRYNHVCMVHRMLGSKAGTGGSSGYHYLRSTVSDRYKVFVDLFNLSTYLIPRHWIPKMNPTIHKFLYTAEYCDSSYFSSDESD
T1 sequence (P14902 whole entry): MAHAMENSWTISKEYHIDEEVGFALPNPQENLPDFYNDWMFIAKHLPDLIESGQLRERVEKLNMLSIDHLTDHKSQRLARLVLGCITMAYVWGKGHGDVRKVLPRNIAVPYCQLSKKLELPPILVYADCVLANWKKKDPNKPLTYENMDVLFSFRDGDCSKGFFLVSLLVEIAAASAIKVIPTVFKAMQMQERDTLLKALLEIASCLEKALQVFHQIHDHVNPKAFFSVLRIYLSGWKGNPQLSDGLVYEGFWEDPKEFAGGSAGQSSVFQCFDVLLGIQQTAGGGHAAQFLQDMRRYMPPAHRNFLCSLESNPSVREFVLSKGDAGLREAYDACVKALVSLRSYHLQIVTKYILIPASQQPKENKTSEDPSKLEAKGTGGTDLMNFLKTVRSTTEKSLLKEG

Structure (SMILES)	pEC50 [1]	pIC50 [2]	pEC50 [3]
COCCOc1ccc(C2CCC(C(O)c3c(C4CC4)ccn4cncc34)CC2)cc1 (racemic) [Example C103, (7-cyclopropylimidazo[1,5-a]pyridin-8-yl)(4-(4-(2-methoxyethoxy)phenyl)cyclohexyl)methanol]	7.02	7.21	< 5.00
OC(c1c(C2CC2)ccn2cncc12)C1CCC(c2ccc(OC(F)(F)F)cc2)CC1 (racemic) [Example C105]	5.70	6.68	< 5.00
OC(c1c(C2CC2)ccn2cncc12)C1CCC(c2ccccc2F)CC1 (racemic) [Example C108, (7-cyclopropylimidazo[1,5-a]pyridin-8-yl)(4-(2-fluorophenyl)cyclohexyl)methanol]	6.49	7.23	< 5.00
Cc1cccc(C2CCC(C(O)c3c(C4CC4)ccn4cncc34)CC2)c1 (racemic) [Example C111, (7-cyclopropylimidazo[1,5-a]pyridin-8-yl)(4-(m-tolyl)cyclohexyl)methanol]	6.70	7.09	< 5.00
COCCOc1ccc([C@H]2CC[C@H]([C@@H](O)c3c(C4CC4)ccn4cncc34)CC2)cc1 (single isomer, unassigned) [Example C103b]	5.53	5.92	< 5.00
O[C@@H](c1c(C2CC2)ccn2cncc12)[C@H]1CC[C@H](c2ccccc2F)CC1 (single isomer, unassigned) [Example C108b]	< 5.00	5.14	< 5.00
Cc1cccc([C@H]2CC[C@H]([C@@H](O)c3c(C4CC4)ccn4cncc34)CC2)c1 (single isomer, unassigned) [Example C111b]	< 5.00	< 5.00	< 5.00
Cc1ccccc1[C@H]1CC[C@H]([C@@H](O)c2c(C3CC3)ccn3cncc23)CC1 (single isomer, unassigned) [Example C112b]	< 5.00	< 5.00	< 5.00
COc1ccccc1[C@H]1CC[C@H]([C@@H](O)c2c(C3CC3)ccn3cncc23)CC1 (single isomer, unassigned) [Example C113b]	< 5.00	5.09	< 5.00
COc1cccc([C@H]2CC[C@H]([C@@H](O)c3c(C4CC4)ccn4cncc34)CC2)c1 (single isomer, unassigned) [Example C114b]	< 5.00	5.33	< 5.00
O[C@@H](c1c(C2CC2)ccn2cncc12)[C@H]1CC[C@H](c2ccccc2C(F)(F)F)CC1 (single isomer, unassigned) [Example C116b]	< 5.00	5.27	< 5.00
O[C@@H](c1c(C2CC2)ccn2cncc12)[C@H]1CC[C@H](c2ccc(OC3COC3)cc2)CC1 (single isomer, unassigned) [Example C117b]	< 5.00	5.96	< 5.00
O[C@@H](c1c(C2CC2)ccn2cncc12)[C@H]1CC[C@H](c2ccc(OC3CCCC3)cc2)CC1 (single isomer, unassigned) [Example C118b]	< 5.00	5.52	< 5.00
O[C@@H](c1c(C2CC2)ccn2cncc12)[C@H]1CC[C@H](c2ccc(C(F)(F)F)nc2)CC1 (single isomer, unassigned) [Example C120b]	< 5.00	5.32	< 5.00
O[C@@H](c1c(C2CC2)ccn2cncc12)[C@H]1CC[C@H](c2cccc3ccccc32)CC1 (single isomer, unassigned) [Example C121b]	< 5.00	5.82	< 5.00
O[C@H](c1c(C2CC2)ccn2cncc12)[C@H]1CC[C@H](c2cccc3ncccc32)CC1 (single isomer, unassigned) [Example C126a]	7.70	7.80	< 5.00
OC(c1c(C2CC2)ccc2cncn12)[C@H]1CC[C@H](c2cccc(F)c2F)CC1 (single isomer, unassigned) [Example D132b]	< 5.00	5.12	
O[C@H](c1c(C2CC2)ccc2cncn12)C1CCN(c2ccccc2)CC1 (single isomer, unassigned) [Example D170a]	7.66		< 5.00
O[C@H](c1c(C2CC2)ccc2cncn12)C1CCN(c2ccc(Cl)c3ncccc23)CC1 (single isomer, unassigned) [Example D178a]	8.01		< 5.00
OC(c1c(C2CC2)ccn2cncc12)C1CCC(c2ccc(F)c(F)c2)CC1 (centres unmarked) [Example C131, (7-cyclopropylimidazo[1,5-a]pyridin-8-yl)(4-(3,4-difluorophenyl)cyclohexyl)methanol]		6.96	< 5.00

Second part, the molecule after the results:

pEC50 [1]	pIC50 [2]	pEC50 [3]	Structure (SMILES)
6.70	7.39	< 5.00	COc1ccc(C2CCC(C(O)c3c(C4CC4)ccn4cncc34)CC2)cc1 (racemic) [Example C101, (7-cyclopropylimidazo[1,5-a]pyridin-8-yl)(4-(4-methoxyphenyl)cyclohexyl)methanol]
6.58	7.00	< 5.00	OC(c1c(C2CC2)ccn2cncc12)C1CCC(c2ccc(Cl)cc2)CC1 (racemic) [Example C102, (4-(4-chlorophenyl)cyclohexyl)(7-cyclopropylimidazo[1,5-a]pyridin-8-yl)methanol]
7.09	7.44	< 5.00	Oc1ccc(C2CCC(C(O)c3c(C4CC4)ccn4cncc34)CC2)cc1 (racemic) [Example C104]
6.37	7.30	< 5.00	N#Cc1ccc(C2CCC(C(O)c3c(C4CC4)ccn4cncc34)CC2)cc1 (racemic) [Example C106, 4-(4-((7-cyclopropylimidazo[1,5-a]pyridin-8-yl)(hydroxy)methyl)cyclohexyl)benzonitrile]
6.80	7.19	< 5.00	OC(c1c(C2CC2)ccn2cncc12)C1CCC(c2ccc(F)cc2)CC1 (racemic) [Example C107, (7-cyclopropylimidazo[1,5-a]pyridin-8-yl)(4-(4-fluorophenyl)cyclohexyl)methanol]
7.00	7.06	< 5.00	OC(c1c(C2CC2)ccn2cncc12)C1CCC(c2cccc(F)c2)CC1 (racemic) [Example C109, (7-cyclopropylimidazo[1,5-a]pyridin-8-yl)(4-(3-fluorophenyl)cyclohexyl)methanol]
< 5.00	< 5.00	< 5.00	O[C@@H](c1c(C2CC2)ccn2cncc12)[C@H]1CC[C@H](c2ccc(Cl)cc2)CC1 (single isomer, unassigned) [Example C102b]
< 5.00	5.28	< 5.00	Oc1ccc([C@H]2CC[C@H](C(O)c3c(C4CC4)ccn4cncc34)CC2)cc1 (single isomer, unassigned) [Example C104b]
< 5.00	5.70	< 5.00	O[C@@H](c1c(C2CC2)ccn2cncc12)[C@H]1CC[C@H](c2ccc(OC(F)(F)F)cc2)CC1 (single isomer, unassigned) [Example C105b]
< 5.00	5.64	< 5.00	N#Cc1ccc([C@H]2CC[C@H](C(O)c3c(C4CC4)ccn4cncc34)CC2)cc1 (single isomer, unassigned) [Example C106b]
< 5.00	5.29	< 5.00	O[C@@H](c1c(C2CC2)ccn2cncc12)[C@H]1CC[C@H](c2ccc(F)cc2)CC1 (single isomer, unassigned) [Example C107b]
< 5.00	< 5.00	< 5.00	O[C@@H](c1c(C2CC2)ccn2cncc12)[C@H]1CC[C@H](c2cccc(F)c2)CC1 (single isomer, unassigned) [Example C109b]
< 5.00	< 5.00	< 5.00	Cc1ccc([C@H]2CC[C@H]([C@@H](O)c3c(C4CC4)ccn4cncc34)CC2)cc1 (single isomer, unassigned) [Example C110b]
5.02	< 5.00	< 5.00	O[C@@H](c1c(C2CC2)ccn2cncc12)[C@H]1CC[C@H](c2ccc(C(F)(F)F)cc2)CC1 (single isomer, unassigned) [Example C115b]

— patent US10882856B2 (BeiGene, Ltd., priority 2017, dated 2021)
